This note sets out measurements from patent publication US11541029B2, “High penetration compositions and their applications” (Techfields Pharma Co., Ltd., priority 2008, dated 2023).

A short description of data set [1]: Distribution in organs of rabbits after transdermal HPC of ibuprofen. It is filed as in vivo. The settings on record: for distribution in brain / distribution in cartilage pads / distribution in heart / distribution in prostate gland / distribution in testis: 2 hr after 0.3 mol/kg HPC of ibuprofen (10% aqueous) on shaved back; for distribution in Myelin: 2 hr after HPC of ibuprofen (10% aqueous) on shaved back.
From the text: (§1) A HPC changed quickly to its parent drug in vivo, so the concentration was the concentration of its parent drug or related compound.

Data set [2] is described as follows: Distribution in organs of rats after transdermal HPC of ibuprofen. Particulars: 2 hr after 0.3 mmol/kg HPC of ibuprofen (10% aqueous) on shaved back.
From the text: as §1
Data set [3] in a line: Amounts of ibuprofen in Beagle dogs cartilage tissue. It is filed as in vivo. The settings on record: 18 hours after administration.
Data set [4] can be described thus: Amount of ibuprofen in rat plasma and brain, 0.3 mmol/kg. The procedure:
The plasma or brain tissue (the whole brain was washed with pH 7.4 buffer for 3 times) was homogenized immediately in 3-5 ml of methanol, using a tissue tearor at 30,000 rpm (about 2 min.).

The nature of data set [5]: Amount of ibuprofen in Beagle dogs synovial fluid, 0.3 mmol/kg. It is filed as in vivo.
Data set [6] relates to rats given sterilized E. coli suspension as a pyrogen. In words: Antipyretic activity of ibuprofen and its HPC (Study A). It is filed as in vivo.
The next data set in a line: Solubility in water. It is filed as physicochemical. The protocol: 30 g (0.1 mol) of sodium 9-cis-retinoate was dissolved in 100 ml of acetonitrile. 26.1 g (0.1 mol) of 2-Bromo-N,N-diethylethylamine.HBr was added into the reaction mixture. The mixture was stirred for overnight at RT. The solvents were evaporated off. 200 ml of ethanol was added into the residue. The solid was removed by filtration. The solution was evaporated to dryness. 100 ml of ethyl acetate was added into the reaction mixture. Hexane (100 ml) was added. The solid product was collected by filtration. After drying, it yielded 36 g of the desired product (75%).

A short description of data set [7]: Distribution in milk of sheep after transdermal HPC of ibuprofen. Particulars: female, topical, 2 hr after 0.3 mmol/kg diethylaminoethyl 2-(ρ-isobutylphenyl)propionate.citric acid salt on back, read-out: amount found in the milk. It is filed as in vivo.
From the text: as §1
Data set [8] can be described thus: Fluorescence microscopy of HPC crossing rat skin, brain and other organs. It is filed as in vivo. The settings on record: 15 minutes after 30 mg in 0.5 ml ethanol on back of rats. The protocol: For fluorescence microscopy studies, 30 mg of 5-(dimethylamino)naphthalene-1-sulfonic acid or its HPC, N-2-diethylaminoethyl 5-dimethylamino-1-naphthalenesulfonamide.HCl salt was dissolved in 0.5 ml of 75% ethanol and applied to the shaved back of rats (3×3 cm). 15 minutes or 3 hours later, the rat was killed and organs were taken out and frozen. The frozen tissues (brain, liver, and muscle) were sliced and stained with Haematoxylin and eosin (H&E) staining. Results were shown picture 1-9 in FIG. 9.

Data set [9] concerns spontaneously hypertensive rats (SLAC/SHR). In words: Anti-hypertensive activity in spontaneously hypertensive rats. It is filed as in vivo. The settings on record: 50 mg/kg (10% in water) on back skin once per day. The procedure: 20 spontaneously hypertensive rats (SLAC/SHR, 19 weeks old, 300-350 g) were divided into 2 groups randomly. In group A, pure water (0.5 ml) was applied to the rats' back skin (˜5 cm^2, fur was cut off) once per day for 6 weeks. In groups B, 50 mg/kg of diethylaminoethyl acetylsalicylate citric acid salt (10% in water) was applied to the rats' back skin (˜5 cm^2, fur was cut off) once per day.

Data set [10] deals with Smyth chickens (animal models of vitiligo). In words: Anti-vitiligo activity in Smyth chickens. It is filed as in vivo. The settings on record: 50 mg/kg (5% in pure water) on discoloured lesions once per day for 10 weeks. The procedure:
20 Smyth chickens (animal models of vitiligo) were allocated to 2 groups. Group A (n=10) chickens received 1 ml of pure water on discoloured lesions once per day for 10 weeks. Group B (n=10) Smyth chicken received 50 mg/kg of diethylaminoethyl acetylsalicylate citric acid (5% in pure water) on discoloured lesions once per day for 10 weeks. In the untreated control group A, the lesions were worse and feather loss continued. In the diethylaminoethyl acetylsalicylate citric acid treated group B, the discoloured lesions disappeared and feathers regrew with 3-6 weeks.

The subject of another data set is mice (aging). In words: Lifespan of mice. It is filed as in vivo. The procedure: 60 mice (10 weeks old, 30.3±3.5 g) were divided into groups A and B. In group A (n=30), 0.05 ml of distilled water (˜2 cm^2) was applied to the back of mice once per day. In group B (n=30), […] of diethylaminoethyl acetylsalicylate citric acid (the HPC of aspirin) in 0.05 ml of water (10%) was applied to the back of mice (˜2 cm^2) once per day.

The mark [11] stands for this setting: 20 mg/kg, transdermally, t = 0 min.
The mark [12] stands for this setting: 20 mg/kg, transdermally, t = 90 min.
Setting [13] is: 20 mg/kg, transdermally, t = 180 min.
Setting [14] is: 20 mg/kg, transdermally, t = 270 min.
Where [15] appears, read: 50 mg/kg, transdermally, t = 0 min.
The mark [16] stands for this setting: 50 mg/kg, transdermally, t = 90 min.
Where [17] appears, read: 50 mg/kg, transdermally, t = 180 min.
[18] abbreviates: 50 mg/kg, transdermally, t = 270 min.
The mark [19] stands for this setting: 100 mg/kg, orally, t = 270 min.
[20] abbreviates: 100 mg/kg, transdermally, t = 0 min.
The mark [21] stands for this setting: 100 mg/kg, transdermally, t = 90 min.
Where [22] appears, read: 100 mg/kg, transdermally, t = 180 min.
Setting [23] is: 100 mg/kg, transdermally, t = 270 min.

For the compound `CCN(CC)CCOC(=O)C(C)c1ccc(CC(C)C)cc1.Cl` (stereo not drawn) [diethylaminoethyl 2-(ρ-isobutylphenyl)propionate.HCl], the distribution in brain is 0.4 ± 0.2 nmol/g in data set [1] and 0.1 ± 0.05 nmol/g in data set [2]. The “distribution in cartilage pads” value in data set [1] was 0.4 ± 0.2 nmol/g. Moreover, the distribution in heart came out at 0.3 ± 0.1 nmol/g in data set [1] and 0.5 ± 0.2 nmol/g in [2]. Further, in data set [1], the “distribution in prostate gland” value came out at 0.5 ± 0.3 nmol/g. The distribution in testis in data set [1] is listed as 0.5 ± 0.3 nmol/g. Further, in data set [1], the “distribution in Myelin” value is reported as 0.60 ± 0.2 nmol/g. The compound further gave a distribution in kidney in data set [2] of 0.4 ± 0.2 nmol/g. The distribution in liver in [2] is 0.2 ± 0.2 nmol/g. In [2], this compound had a distribution in pancreas of 0.5 ± 0.3 nmol/g. The compound also had a distribution in stomach in data set [2] of 0.3 ± 0.1 nmol/g. Moreover, the “Amount of ibuprofen in cartilage tissue” value came out at 17.2 ± 6.1 nmol/g in data set [3] (intramuscularly) and 22.5 ± 4.5 nmol/g in data set [3] (transdermally). The “ibuprofen in Plasma (18 hr)” value in [4] (intramuscularly) is 0.5 ± 0.2 nmol/mL; in data set [4] (transdermally), 2.9 ± 2 nmol/mL. Further, the “ibuprofen in synovial fluid” value in data set [5] (intramuscularly, 1 hour) amounted to 28.1 ± 8.1 nmol/g; in [5] (intramuscularly, 8 hours), 22.1 ± 4.2 nmol/g; in [5] (intramuscularly, 18 hours) it was 4.2 ± 1.1 nmol/g; in [5] (transdermally, 1 hour), 11.6 ± 4.2 nmol/g; in data set [5] (transdermally, 8 hours), 28.2 ± 4.7 nmol/g; in data set [5] (transdermally, 18 hours), 11.2 ± 3.2 nmol/g. In addition, the body temperature was 37.6 ± 0.3 in data set [6] (20 mg/kg, orally, t = 0 min.); 37.1 ± 0.3 in [6] (20 mg/kg, orally, t = 90 min.); 36.9 ± 0.3 in [6] (20 mg/kg, orally, t = 180 min.); 36.8 ± 0.2 in data set [6] (20 mg/kg, orally, t = 270 min.); 37.6 ± 0.2 in [6] (setting [11]); 36.7 ± 0.4 in data set [6] (setting [12]). The body temperature in [6] (setting [13]) worked out at 36.6 ± 0.5; in data set [6] (setting [14]), 36.5 ± 0.3; in data set [6] (50 mg/kg, orally, t = 0 min.), 37.6 ± 0.3; in data set [6] (50 mg/kg, orally, t = 90 min.) it was 36.6 ± 0.3; in [6] (50 mg/kg, orally, t = 180 min.), 36.5 ± 0.3; in data set [6] (50 mg/kg, orally, t = 270 min.), 36.4 ± 0.2. The body temperature in [6] (setting [15]) is given as 37.5 ± 0.4; in data set [6] (setting [16]), 36.5 ± 0.3; in data set [6] (setting [17]) it was 36.4 ± 0.3; in data set [6] (setting [18]) it was 36.5 ± 0.2; in [6] (100 mg/kg, orally, t = 0 min.), 37.5 ± 0.4; in data set [6] (100 mg/kg, orally, t = 90 min.), 36.5 ± 0.3. For the same compound, the body temperature in [6] (100 mg/kg, orally, t = 180 min.) amounted to 36.4 ± 0.3; in data set [6] (setting [19]), 36.4 ± 0.2; in [6] (setting [20]) it was 37.5 ± 0.3; in [6] (setting [21]), 36.5 ± 0.2; in [6] (setting [22]), 36.4 ± 0.3; in [6] (setting [23]), 36.5 ± 0.2.
In “Solubility in water”, `Br.CCN(CC)CCOC(=O)/C=C(C)/C=C/C=C(C)\C=C\C1=C(C)CCCC1(C)C` [N,N-diethylaminoethyl 9-cis-retinoate.HBr] displayed a solubility in water of 30 mg/mL.
In data set [1], `CC(C)Cc1ccc(C(C)C(=O)O)cc1` (stereo not drawn) [ibuprofen, 2-(ρ-isobutylphenyl)propionic acid, reference compound] showed a distribution in brain of 5 ± 1 nmol/g. Moreover, the “distribution in cartilage pads” value in data set [1] is recorded as 8 ± 2 nmol/g. This compound showed a distribution in heart in [1] of 10 ± 5 nmol/g. Also, in data set [1], the “distribution in prostate gland” value is given as 18 ± 7 nmol/g. Besides, the distribution in testis in data set [1] was 11 ± 4 nmol/g. For the same compound, in data set [1], the “distribution in Myelin” value amounted to 25 ± 8 nmol/g. In addition, the concentration at 2 h in [7] amounted to 30 ± 8 µM. This compound had a concentration at 1 h in data set [4] (male, rat, in vivo) of 1430 ± 68 µM. For the same compound, the concentration at 8 h in data set [4] (male, rat, in vivo) amounted to 313 ± 39 µM. Also, the “ibuprofen in synovial fluid” value in data set [5] (intramuscularly, 1 hour) was 3.2 ± 0.3 nmol/g; in [5] (intramuscularly, 8 hours), 0.3 ± 0.1 nmol/g. Besides, the body temperature in data set [6] (20 mg/kg, orally, t = 0 min.) is 37.5 ± 0.2; in data set [6] (20 mg/kg, orally, t = 90 min.), 37.6 ± 0.3; in data set [6] (20 mg/kg, orally, t = 180 min.), 37.5 ± 0.3; in data set [6] (20 mg/kg, orally, t = 270 min.), 37.4 ± 0.3; in [6] (setting [11]), 37.5 ± 0.3; in data set [6] (setting [12]) it was 37.5 ± 0.5. Further, the body temperature is listed as 37.8 ± 0.4 in data set [6] (setting [13]); 37.9 ± 0.3 in [6] (setting [14]); 37.5 ± 0.3 in data set [6] (50 mg/kg, orally, t = 0 min.); 37.6 ± 0.3 in [6] (50 mg/kg, orally, t = 90 min.); 37.2 ± 0.3 in data set [6] (50 mg/kg, orally, t = 180 min.); 37.1 ± 0.3 in data set [6] (50 mg/kg, orally, t = 270 min.). The body temperature in data set [6] (setting [15]) was 37.6 ± 0.3; in data set [6] (setting [16]), 37.8 ± 0.3; in [6] (setting [17]), 37.9 ± 0.3; in [6] (setting [18]), 38.1 ± 0.3; in data set [6] (100 mg/kg, orally, t = 0 min.), 37.5 ± 0.3; in data set [6] (100 mg/kg, orally, t = 90 min.), 37.4 ± 0.4. In addition, the body temperature in data set [6] (setting [19]) came to 36.7 ± 0.3; in [6] (setting [20]), 37.6 ± 0.4; in data set [6] (setting [21]) it was 37.9 ± 0.4; in data set [6] (setting [22]), 37.8 ± 0.3; in [6] (setting [23]) it was 37.8 ± 0.2. Further, the antipyretic activity result in [6] (transdermal administration) is reported as “did not show any antipyretic activity”.
Consider `CCN(CC)CCNS(=O)(=O)c1cccc2c(N(C)C)cccc12.Cl` [N-2-diethylaminoethyl 5-dimethylamino-1-naphthalenesulfonamide.HCl salt], for which the “fluorescence chemical entering brain, muscle, and liver” value in data set [8] is “large amount of the fluorescence chemical had entered the brain, muscle, and liver”.
Regarding `CCN(CC)CCOC(=O)c1ccccc1OC(C)=O.O=C(O)CC(O)(CC(=O)O)C(=O)O` [diethylaminoethyl acetylsalicylate citric acid salt], in data set [9], the “Blood pressure (week 0), Systolic” value stood at 184.6 ± 15.1 mmHg; the “Blood pressure (week 0), diastolic” value stood at 118.2 ± 13.1 mmHg; the “Blood pressure (week 2 to week 6), Systolic” value came out at 115.4 ± 14.6 mmHg; the “Blood pressure (week 2 to week 6), diastolic” value was 83.5 ± 12.1 mmHg. For the same compound, in data set [10], the “time until discoloured lesions disappeared and feathers regrew” value is 3-6 weeks. Also, in the data set with mice (aging) (0.5 mg in 0.05 ml of water on back once per day, n=30), the Lifespan is 38.2 ± 4.6 month. Further, in the data set on mice (aging) (mouse, in vivo), the “increase of the lifespan of mice” value is 27%.
